# Experimental data: publication PMC5352362, “Molecular and functional evaluation of a novel HIF inhibitor, benzopyranyl 1,2,3-triazole compound” (Oncotarget, 2016)
# pIC50: −log10 of the molar value. Read-outs that look alike come from different tables or passages of the source.
# What was measured:
# HIF-1α = conditions: cited from earlier work
# [1] = test system: Lewis lung carcinoma (LLC) cells; assay: Lewis lung carcinoma allograft in C57BL/6J mice with immunohistochemistry; assay type: in vivo, mouse
# Description: HIF-1α is synthesized by growth factor signaling pathways, such as those of EGFR [30] [31]. Inhibition of HIF-1α in its pathways of synthesis, as well as in its pathway of degradation, would seem to make for a more efficient anti-cancer/anti-angiogenesis treatment. To confirm this, we performed a tumor allogaft experiment using Lewis lung carcinoma (LLC) cells. 1 × 10^6 LLC cells were inoculated into the mouse flank subcutaneously (s.c.), and treatment with Compound 12 (5 mg/kg) and/or gefitinib (an EGFR inhibitor, 50 mg/kg), via intraperitoneal (i.p.) administration, was performed every other day for 20 days. At Day 20, mice were sacrificed and tumor tissue was fixed in formaldehyde for 1 h for further histological examination. […] To confirm the effect of Compound 12 on angiogenesis, we analyzed angiogenesis using the Matrigel plug assay. […] To confirm the effects of Compound 12 on anti-angiogenesis, we sectioned the tumor tissues to determine microvessel density (MSD) via immunohistochemistry (using CD31 antibody).
# Figure 6 Compound 12 suppressed allogaft tumor growth and enhanced the effects of a chemotherapeutic agent (A, B) Lewis lung carcinoma cells were inoculated into flanks of C57BL/6J mice (Day 0). From two days after inoculation, mice were treated intraperitoneally with Compound 12 (5 mg/kg body weight) and gefitinib (50 mg/kg body weight), three times a week, for 18 days and then sacrificed. Tumor size (A) and tumor weight (B) were measured three times a week and on the final day, respectively. Tumor masses were photographed and shown in box below the graph. **P < 0.05 versus control group. (C) Matrigel was treated with DMSO, Compound 12 (100 nM), and gefitinib (5 μM) and inoculated in the flank of C57BL/6J mice. After 10 days matrigel plug was removed and photographed. The content of hemoglobin was quantified and graphed. (D) Tumor tissue sections (10 μm) indicated were stained with H&E and immunostained with anti-CD31 antibody to detect microvessel density; CD31+ cell percentages were then calculated and graphed. Scale bar, 100 μm. **P < 0.05 versus control group. (E) Images and quantitative comparisons (graph) for hypoxic regions, immunostained CA9 protein, and microvessels (CD31+ cells) in tumor center regions are shown. Scale bar, 100 μm. **P < 0.05 versus control group. (F) Images and quantitative comparisons (graph) for Ki67+ proliferating cells in tumor center regions are shown. Scale bar, 100 μm. **P < 0.05 versus control group.
# We determined levels of hypoxia in tissues via: 1) antibodies against the hypoxic cell marker pimonidazole (PIMO), and 2) checking expression levels of carbonic anhydrase (CA9), a downstream target of HIF-1.
# LLC cells (1 × 10^6) were injected subcutaneously into the flanks of 6-week-old C57BL/6J mice (Day 0)(SLC, Japan). Tumor size and body weight were measured 3 time a week. Tumor tissues were removed at day 20 after completion of injection of vehicle or drugs and fixed with 4% paraformaldehyde (PFA). After tissue processing for frozen sample preparation protocol, samples were embedded in OCT compound and frozen quickly by liquid nitrogen. Frozen blocks were cut into 10 μm sections and stained with hematoxylin and eosin (H&E) for light microscopy. Additional tissue sections for immunohistochemistry were blocked with 5% goat serum in PBST (0.03% Triton X-100 in PBS) and then incubated for 3 h at RT with following primary antibodies, anti-CD31 and anti-Ki67. To detect the hypoxic area in the tumors, Hypoxyprobe-1™ (60 mg/kg, Natural Pharmacia International) was iv injected 90 min before tissue fixation. Tumors were harvested, sectioned and stained with FITC-conjugated anti-Hypoxyprobe antibody.
# [2] = test system: angiogenesis (hemoglobin content of Matrigel plug); assay: Matrigel plug assay in C57BL/6J mice; assay type: in vivo, mouse; conditions: Compound 12 100 nM, gefitinib 5 μM in Matrigel, 10 days
# Description: HIF-1α is synthesized by growth factor signaling pathways, such as those of EGFR [30] [31]. Inhibition of HIF-1α in its pathways of synthesis, as well as in its pathway of degradation, would seem to make for a more efficient anti-cancer/anti-angiogenesis treatment. To confirm this, we performed a tumor allogaft experiment using Lewis lung carcinoma (LLC) cells. 1 × 10^6 LLC cells were inoculated into the mouse flank subcutaneously (s.c.), and treatment with Compound 12 (5 mg/kg) and/or gefitinib (an EGFR inhibitor, 50 mg/kg), via intraperitoneal (i.p.) administration, was performed every other day for 20 days. […] To confirm the effect of Compound 12 on angiogenesis, we analyzed angiogenesis using the Matrigel plug assay. […]
# Figure 6 Compound 12 suppressed allogaft tumor growth and enhanced the effects of a chemotherapeutic agent (A, B) Lewis lung carcinoma cells were inoculated into flanks of C57BL/6J mice (Day 0). […] Tumor size (A) and tumor weight (B) were measured three times a week and on the final day, respectively. […] The content of hemoglobin was quantified and graphed. (D) Tumor tissue sections (10 μm) indicated were stained with H&E and immunostained with anti-CD31 antibody to detect microvessel density; CD31+ cell percentages were then calculated and graphed. […] (F) Images and quantitative comparisons (graph) for Ki67+ proliferating cells in tumor center regions are shown. […]
# [3] = test system: chick chorioallantoic membrane angiogenesis; assay: Chick embryo chorioallantoic membrane (CAM) assay; assay type: in vivo; conditions: applied to ED 4.5 CAM for two days; Compound 12 0.1 μg and 1 μg
# Description: Figure 5 Compound 12 suppressed HIF-1α target gene expression, and confirmation of in vitro results via determination of effects on angiogenesis in vivo (A) A549 cells were treated with Compound 12 (at concentrations of 0 nM, 1 nM, 10 nM, and 100 nM) for 16 h. The mRNA levels of HIF-1α target genes were determined by semiquantitative RT-PCR. β-actin was used as an internal control. D. DMSO vehicle control. N, normoxia; H, hypoxia. (B) A549 cells were treated with serum-reduced culture media containing Compound 12 (at concentrations of 0 nM, 10 nM, and 100 nM) for 16 h. Media supernatant was collected, and secreted VEGF was determined by ELISA after removal of cellular debris. N, normoxia; H, hypoxia. **P < 0.01 versus hypoxia (H) DMSO (D)-treated control. (C) HUVECs were treated with Compound 12, at the indicated concentrations, in the presence of VEGF (20 ng/mL) for 24 h in 1% serum-containing media. […] Cells that migrated through the membrane (8 μm pore size) were stained with hematoxylin and eosin, pictured as shown in upper panel, and counted (graph). *P < 0.05, **P < 0.01 versus VEGF-treated control. […] (F) Compound 12 (0.1 μg and 1 μg dosages) and retinoic acid (RA, positive control) were applied to the ED 4.5 CAM for two days, neovessel formation from the large vessels was observed, and percentages of positive angiogenic eggs (from total eggs tested) were calculated. […]
# [4] = read-out: IC50 of HIF-1α inhibitor
smiles,measurement,setting,value
COC(=O)c1ccc(O)c(NC(=O)COc2ccc(C34CC5CC(CC(C5)C3)C4)cc2)c1 [LW6],pIC50,HIF-1α; [4],5.52 to 5.60
CC1(C)C=Cc2c(ccc(C(=O)/C=C/c3cccs3)c2O)O1 [SYP-5],pIC50,HIF-1α; [4],5.00
"OCc1ccc(-c2nn(Cc3ccccc3)c3ccccc23)o1 [YC-1, 3-(5′-hydroxymethyl-2′-furyl)-1-benzyl indazole]",pIC50,HIF-1α; [4],4.30 to 5.70
CC(C)C[C@H](NC(=O)[C@H](Cc1ccccc1)NC(=O)c1cnccn1)B(O)O [bortezomib],concentrations inhibiting p300-HIF-1α binding / HIF-1α,HIF-1α; prostate cancer cells,0.6 to 30 nM
CS[C@H]1SC[C@H]2C(=O)N(C)[C@@H](C(C)C)C(=O)OC[C@@H](NC(=O)c3cnc4ccccc4n3)C(=O)N[C@@H](C)C(=O)N(C)[C@@H]1C(=O)N(C)[C@@H](C(C)C)C(=O)OC[C@@H](NC(=O)c1cnc3ccccc3n1)C(=O)N[C@@H](C)C(=O)N2C [echinomycin],pIC50,"HIF-1α; reference not given, read-out: inhibitory concentration of HIF-1α inhibitor",8.92
"COc1cc2ncnc(Nc3ccc(F)c(Cl)c3)c2cc1OCCCN1CCOCC1 [gefitinib, reference compound]","levels of PIMO and CA9 in tumors, single agent",[1]; LLC allograft tumor sections,significantly diminished
same,"microvessel density (MSD), CD31, single agent",[1]; LLC allograft tumor sections,significantly decreased MSD
same,cells expressing Ki-67 protein in tumors,"[1]; LLC allograft tumor sections, single agent",significantly decreased
same,"tumor growth, single agent","[1]; LLC allograft, C57BL/6J mice, i.p., Compound 12 5 mg/kg, gefitinib 50 mg/kg",inhibited tumor growth significantly
same,"anti-angiogenic activity, Matrigel plug (hemoglobin content)",[2],anti-angiogenic activity was increased
"CC1=C(/C=C/C(C)=C/C=C/C(C)=C/C(=O)O)C(C)(C)CCC1 [retinoic acid, reference compound]",CAM angiogenesis,[3],significantly suppressed CAM angiogenesis
